Assay results reported in patent US5593698A, “Suppression of proliferative response and induction of tolerance with polymorphic class II MHC allopeptides” (Autoimmune, Inc., priority 1993, dated 1997).

system: LEW rats; assay: Delayed Type Hypersensitivity (DTH) response after immunization with allopeptides; assay type: in vivo, rat; details: LEW rats immunized in foot pad with 12.5 μg of one fragment and CFA; FIG. 5
Description: 4. Delayed Type Hypersensitivity (DTH) Response: LEW rats, used as responders, were immunized subcutaneously in the foot pad with 100 μg of the mixture of four RT1.B^u (50 μg) and four RT1.D^u (50 μg) peptides in complete Freund's adjuvant (12.5 μg of each peptide). These animals were challenged subcutaneously 2 weeks later in one ear with 10 μg of the peptide mixture and in the other ear with freshly prepared and irradiated (3000 Rads) splenocytes (10×10^6) from WF (RT1^u), syngeneic LEW (RT1^1), or third party BN (RT1^n). The DTH responses were measured with micrometer caliper (Mitutoyo, Japan) by a blinded observer as the delta ear thickness before and 2 days after the challenge (inches ×10^-2). Experiments were performed using 5 animals in each study group. P values were calculated using the student t-test.
These experiments investigate whether, in addition to polymorphism, the native location of the allopeptide, β-pleat vs. α-helix, may be an important determinant of immunogenicity and tolerogenicity in vivo. The immunogenicity and tolerogenicity of the individual allopeptide fragments were investigated. LEW rats, used as responders, were immunized subcutaneously in the foot pad with 12.5 μg of one of the four RT1.D (1-25, 20-44, 39-64, and 60-84) and four RT1.B (1-25, 20-44, 39-64, and 68-92) allopeptide fragments and CFA. DTH responses were then determined for each of the peptide fragments. […] In FIG. 5, "RT1D mix" and "RT1B mix" refers to animals immunized with a mixture of all four allopeptides. In FIG. 5 solid bars represent immunization with cells, hatched bars represent immunization with peptides. Bars represent the change in ear thickness in […] (mean±SEM).

Substance | Immunogenicity of individual allopeptide fragments by DTH response
RT1.B1: RT1.B allopeptide fragment 1-25, β-pleat (QRLRRDFLVQFKPYCYFTNGTQRIR) | immunogenic
RT1.B2: RT1.B allopeptide fragment 20-44, β-pleat (GTQRIRNVIRYIYNREEYLRYDSDV) | immunogenic
RT1.D1: RT1.D allopeptide fragment 1-25, β-pleat (RDPTPRFLGYLKPECHFYNGTNRVR) | immunogenic
RT1.D2: RT1.D allopeptide fragment 20-44, β-pleat (GTNRVRLLARLIYNREEYARFDSDV) | immunogenic
